In patent US8889378B2, “Cytochrome C synthesis inhibitors” (priority 2006, dated 2014):

Tests used:
[1] = system: system I cytochrome c biogenesis (heme acquisition); assay: Exogenous heme addition, E. coli ΔccmΔhemA (RK105) with system I, pRGK332 and pHPEX2; format: cell-based
Description: (§1) Cultures of RK105 (E. coli ΔccmΔhemA) harboring pRGK333 (system I), pRGK332 (cytochrome c4:6×His), and pHPEX2 (Varnado and Goodwin, 2004) or pRGK348 (system II) and pRGK332 were grown in LB overnight in the presence of 300 μM aminolevulinic acid (ALA). 100 mL cultures were started from the overnight culture with a 1% inoculum in LB devoid of ALA for two and one-half hours. After two and one-half hours, the 100 mL cultures had exhausted their cellular supply of ALA and required exogenous heme (or ALA) for further growth. The ALA exhausted cultures were divided into 5 mL aliquots to which IPTG (1 mM, to induce the synthesis of the system I proteins) and heme (0 μM to 100 μM) (Sigma) were added. It was discovered that heme at greater than 60 μM would precipitate over time with no IPTG (1 mM) present and at greater than 100 μM in the presence of IPTG. After one hour, arabinose (0.2% to induce the synthesis of cytochrome c4:6×His) was added and cultures were grown for an additional three hours. Cells were harvested and protein was extracted using B-PER as previously described (Feissner et al., 2006). […]
Heme stains were performed as described (Feissner et al., 2003) using SuperSignal Femto chemiluminescent substrate (Pierce). Heme stain quantitation used LOLITA II (Low Light Test Array; raytestUSA; Wilmington, N.C.) for standardization of light intensity detection on an LAS1000plus Luminescent Image Analyzer CCD camera system. […] Chemiluminescence from heme stains and Western blots were detected using an LAS-1000plus Luminescent Image Analyzer CCD camera system (Fujifilm). Protein concentrations were determined using the BCA assay (Pierce) using BSA as a standard. […] Protein concentrations were determined with the BCA assay kit (Pierce) using BSA as a standard.
To directly examine the difference in heme acquisition between systems I and II, varying concentrations of exogenous heme were supplied to E. coli ΔccmΔhemA, expressing ChuA with pRGK332 and either system plasmid. […] The cytochrome c4 acts as a trap, allowing quantitation of the levels of heme that have fluxed through each system. […]

[2] = system: system II (CcsBA) cytochrome c biogenesis (heme acquisition); assay: Exogenous heme addition, E. coli ΔccmΔhemA (RK105) with system II (CcsBA), chuA and pRGK332; format: cell-based; details: averaged over 3 trials, Hill curve fit, read-out: heme concentration at which holocytochrome c4:6×His levels reached 50% of maximum synthesis
Description: Cultures of RK105 (E. coli ΔccmΔhemA) harboring pRGK333 (system I), pRGK332 (cytochrome c4:6×His), and pHPEX2 (Varnado and Goodwin, 2004) or pRGK348 (system II) and pRGK332 were grown in LB overnight in the presence of 300 μM aminolevulinic acid (ALA). 100 mL cultures were started from the overnight culture with a 1% inoculum in LB devoid of ALA for two and one-half hours. After two and one-half hours, the 100 mL cultures had exhausted their cellular supply of ALA and required exogenous heme (or ALA) for further growth. The ALA exhausted cultures were divided into 5 mL aliquots to which IPTG (1 mM, to induce the synthesis of the system I proteins) and heme (0 μM to 100 μM) (Sigma) were added. […]
Heme stains were performed as described (Feissner et al., 2003) using SuperSignal Femto chemiluminescent substrate (Pierce). Heme stain quantitation used LOLITA II (Low Light Test Array; raytestUSA; Wilmington, N.C.) for standardization of light intensity detection on an LAS1000plus Luminescent Image Analyzer CCD camera system. […] Chemiluminescence from heme stains and Western blots were detected using an LAS-1000plus Luminescent Image Analyzer CCD camera system (Fujifilm). Protein concentrations were determined using the BCA assay (Pierce) using BSA as a standard. […] Protein concentrations were determined with the BCA assay kit (Pierce) using BSA as a standard. […]

[3] = Heme precipitation in culture medium; format: physicochemical
Description: as §1, with “2006). Cytochrome c4:6×His was purified from 200 μg of total protein over nickel affinity resin to eliminate free heme. 20 μL of each sample were subjected to SDS-PAGE, transferred to nitrocellulose, and heme stained as described above.” for “2006).”

E. coli ΔccmΔhemA = assay: Growth of E. coli ΔccmΔhemA on exogenous heme, without or with the heme porin ChuA (pHPEX2); format: cell-based
Description: FIG. 13. Growth of E. coli DccmDhemA with exogenous heme. Overnight cultures of E. coli DccmDhemA or containing pHPEX2 and (A) pRGK333 or (B) pRGK334 were diluted into LB broth without ALA or heme. The cultures were incubated aerobically at 37° C. for two and one-half hours to exhaust the cultures for ALA. Heme was added at the indicated concentrations when noted and growth (A600) was measured. For reference, the growth of E. coli Dccm (wild-type) containing either pRGK333 or pRGK334 is shown (t).
To determine if exogenous heme rather than ALA could support growth, an overnight culture of E. coli ΔccmΔhemA, supplemented with 300 μM ALA, was used to inoculate [1% (v/v)] fresh LB medium containing different concentrations of heme (0 μM to 100 μM).
Since the outer membranes of some strains of E. coli are poorly permeable to heme, the heme porin from pHPEX2 (Varnado and Goodwin, 2004) was expressed. The tetracycline-resistant pHPEX2 expresses the gene for the heme receptor (chuA) from E. coli O157:H7 using the IPTG-inducible lacUV5 promoter. ChuA is a member of a class of relatively nonspecific enterobacterial heme receptors that are TonB-dependent and facilitate heme acquisition from the environment and recognize free heme and heme bound to a variety of proteins (see FIG. 11). Growth of E. coli ΔccmΔhemA containing either pRGK333 or pRGK334 and pHPEX2 was dependant on exogenous heme (see FIG. 13). […] The pHPEX2 also facilitates the heme-dependent production of the B. pertussis c4:6×His when the plasmids with system I or system II are present (see below).

[4] = system: system I cytochrome c biogenesis; assay: Heme competition with ZnPPIX inhibition, E. coli Δccm with system I, ChuA and cytochrome c4:Pho; format: cell-based; details: grown with 12.5 μM ZnPPIX
Description: FIG. 22. Western blot (A: lanes 1-7) and heme stain (B: lanes 1-5) indicating ZnPPIX competes with heme. Overnight cultures of E. coli Dccm containing pRGK333, pRGK331, and pHPEX2 were diluted into fresh LB broth containing […] ZnPPIX and grown to mid-log phase. IPTG (1 mM) was added and incubation continued for 30 minutes. Heme was added and incubation continued for 30 minutes. Arabinose (0.2%) was added for three hours to induce synthesis of cytochrome c4:PhoA and soluble B-PER protein extracts were prepared. The concentrations ([…]) of ZnPPIX and heme are given above each lane. Above the panel pSysI is pRGK333, pc4:PhoA is cytochrome c4:PhoA, and Dccm is E. coli Dcam.
ZnPPIX is inhibiting downstream of holoCcmE since this “heme reservoir” is no longer available for cytochrome c4 biogenesis. The WWD containing protein CcmF may the target for ZnPPIX (see FIG. 11). If the target for ZnPPIX is a heme binding protein (site), then exogenous heme should compete with this inhibition (i.e. ZnPPIX binding). […] The same heme stained polypeptides were confirmed to be full length cytochrome c4:Pho fusion proteins by Western blot (FIG. 22A, lane 1-5). ZnPPIX is a specific inhibitor of c-type cytochrome biogenesis by either system I or system II, but heme is able to compete with ZnPPIX inhibition.

iron protoporphyrin IX [heme]
heme concentration at which maximum synthesis of holocytochrome c4:6×His occurs ([1]; system I): less than 10 μM
apparent affinity for heme, system I versus system II ([1]; system I compared with system II): at least twenty fold higher
EC50 ([1]; system I, averaged over 4 trials, Hill curve fit, read-out: heme concentration restoring holocytochrome c4:6×His levels to 50% of maximum): 1.9 µM
EC50 [2]: 54.4 µM
heme concentration above which heme would precipitate over time ([3]; in the presence of IPTG): greater than 100 μM
heme concentration above which heme would precipitate over time ([3]; no IPTG (1 mM) present): greater than 60 μM
growth on exogenous heme (E. coli ΔccmΔhemA; chuA (pHPEX2) expressed, pRGK333 or pRGK334): growth to near wild-type levels
growth on exogenous heme (E. coli ΔccmΔhemA; heme 0 μM to 100 μM, no heme porin): not detected until four to five days
holocytochrome c4:6×His production on exogenous heme (E. coli ΔccmΔhemA; no heme porin, system I or system II plasmid and c4:6×His reporter): no holocytochrome c4:6×His production was detected
holocytochrome c4:Pho with increasing concentrations of additional heme [4]: corresponding increase in holocytochrome c4:Pho
